Tests used:
[1] = HFD-induced diabetic mice: liver lipids; format: in vivo, C57BL/6J mice; conditions: 4 weeks
G6-Pase = test: Semiquantitative RT-PCR in liver tissue: G6-Pase; format: in vivo, C57BL/6J mice; conditions: vs HF, 4 weeks
Experimental: (§1) The difference indicates the daily food intake.
(§2) Total RNA from liver tissue was isolated with a Trizol Reagent (Molecular Research Center, Inc., Cincinnati, Ohio, USA) according to the manufacturer's instructions. The integrity of the extracted total RNA was examined by 2% agarose gel electrophoresis, and the RNA concentration was determined by […] ultraviolet (UV) light absorbency at 260 nm and 280 nm (Spectrophotometer U-2800A, Hitachi). The total RNA (1 μg) was reverse transcribed to cDNA, and 5 μL Moloney murine leukemia virus reverse transcriptase (TEpicentre, Madison, Wis., USA). The PCR was performed in a final 25 μL containing 1 U Blend Taq-Plus (TOYOBO, Japan), 10 μL of the RT cDNA product, 10 μM of each forward (F) and reverse (R) primer, 75 mM Tris-HCL (pH 8.3) containing 1 mg/L Tween 20 (pH 8.3, also known as polyoxyethylene sorbitan monolaurate), 2.5 mM dNTP (deoxy-ribonucleoside triphosphate), and 2 mM MgCl2 (magnesium chloride). The PCR products were analyzed by 2% agarose gel and stained with ethidium bromide.

C2C12 myoblasts = test: MTT test; format: cell-based; conditions: dose of 1 to 25 μg/mL
membrane GLUT4 [2] = test: Western blot of skeletal muscle membrane GLUT4 in HFD mice; conditions: compared to HF, 4 weeks
Experimental: (§3) The HFD mice were subdivided into 6 groups (9 per group) followed by 8-week induction. […] Following four-week treatment and feeding, the food was removed, and the mice were fasted for 12 h and then sacrificed. Tissue samples required were collected from the mice and weighted. Some of the tissue samples were immediately stored at −80° C. and frozen for subsequent target gene analysis. Plasma samples were collected via centrifugation of whole blood at 1600×g for 15 min at 4° C., followed by plasma separation within 30 min.
(§4) We determined PPARα and FAS protein expression levels in liver tissue, PPARγ and FAS protein expression levels in adipose tissue, and membrane GLUT4 expression in skeletal muscle adipose. The total membrane fraction was collected with the buffer and determined as previously described. The membrane GLUT4, p-AMPK, and total AMPK protein content were determined by Western Blotting as previously described.

[3] = HFD-induced diabetic mice: histopathology (H-E) of epididymal white adipose and liver tissue; format: in vivo, C57BL/6J mice; conditions: for Adipocyte area: epididymal white adipose, 4 weeks
Experimental: as §1
Examination was performed for parts of EWAT (epididymal white adipose) and liver tissue specimens collected. The specimens above were soaked in formalin and neutral buffered solution and embedded in paraffin. Parts therein (8 μm) were cut and stained with hematoxylin and eosin. Images were photographed by a microscope (Olympus BX51, Olympus, Tokyo, Japan). Please refer to FIGS. 3(A) and 3(B).

UCP3 = test: Semiquantitative RT-PCR in liver tissue: UCP3; format: in vivo, C57BL/6J mice; conditions: vs HF, 4 weeks
Experimental: as §1, §2

membrane GLUT4 [4] = test: Membrane GLUT4 protein expression in C2C12 myotube cells (Western blot); format: cell-based; conditions: 1, 5, 10, and 25 μg/mL, 25 min
Experimental: In the present invention, C2C12 skeletal myoblasts (ATCC, CRL-1772) were maintained in growth media consisting of Dulbecco's modified Eagle's medium (DMEM) (Gibco BRL) and supplemented with 10% Fetal Bovine Serum (FBS) (Hyclone) and 100 U/mL penicillin/100 μg/mL streptomycin (Gibco BRL), and split 1:4 using 0.05% trypsin when 80% confluent. Myoblasts were diluted and placed in a 9 cm-diameter dish. Cells were cultured to achieve 80%-90% confluency and then the growth media was changed as 2% FBS/DMEM every 24 h for 5-7 days.
In experiments for determining GLUT4 and p-Akt(Ser473)/t-Akt proteins in tubes, differentiated C2C12 cells were serum-starved in DMEM/BSA for 2 h at 37° C. prior to incubation with MeOH crude extract (at 20, 100, 200, and 500 μg/mL), test compounds (at 1, 5, 10, and 25 μg/mL), or vehicle for 25 min, or 100 nM insulin for 25 min.
The cultures obtained by cell culture above were centrifuged, and the resulting pellet was resuspended in a homogenization buffer. The forgoing steps were performed with a filtration membrane. Protein concentrations were measured using a BCA assay (Pierce). Equal amounts of protein were diluted four times in SDS sample buffer, and subjected to SDS PAGE and Western blotting with antibodies specific for Akt, p-Akt Ser^473, and GLUT4. Density blotting analysis was performed using Alpha Easy FC software.

SREBP-2 = test: Semiquantitative RT-PCR in liver tissue: SREBP-2; format: in vivo, C57BL/6J mice; conditions: vs HF, 4 weeks
Experimental: as §1, §2

phospho-AMPK(Thr172) = test: Western blot of phospho-AMPK(Thr172)/total-AMPK in skeletal muscle and liver of HFD mice; conditions: compared to HF, 4 weeks
Experimental: as §3, §4

C=C(CC[C@@H](C(=O)O)[C@H]1CC[C@@]2(C)C3=CC[C@H]4C(C)(C)[C@@H](O)CC[C@]4(C)C3=CC[C@]12C)C(C)C [TT, dehydroeburicoic acid]
Liver lipids: Total lipid ([1]; HF+TT1, 10 mg/kg/day oral): 64.4 mg/g | Liver lipids: Triacylglycerol ([1]; HF+TT1, 10 mg/kg/day oral): 53 µmol/g | Liver lipids: Total lipid ([1]; HF+TT2, 20 mg/kg/day oral): 61.7 mg/g | Liver lipids: Triacylglycerol ([1]; HF+TT2, 20 mg/kg/day oral): 48 µmol/g | Liver lipids: Total lipid ([1]; HF+TT3, 40 mg/kg/day oral): 57.9 mg/g | Liver lipids: Triacylglycerol ([1]; HF+TT3, 40 mg/kg/day oral): 47.1 µmol/g | G6-Pase mRNA expression level in liver (G6-Pase; HF+TT1, 10 mg/kg/day oral): decreased | G6-Pase mRNA expression level in liver (G6-Pase; HF+TT2, 20 mg/kg/day oral): decreased | G6-Pase mRNA expression level in liver (G6-Pase; HF+TT3, 40 mg/kg/day oral): decreased | toxicity to C2C12 myoblasts in MTT test (C2C12 myoblasts): non-toxic | membrane expression level of GLUT4 in skeletal muscle (membrane GLUT4 [2]; HF+TT1, 10 mg/kg/day oral): significantly increased | membrane expression level of GLUT4 in skeletal muscle (membrane GLUT4 [2]; HF+TT2, 20 mg/kg/day oral): significantly increased | membrane expression level of GLUT4 in skeletal muscle (membrane GLUT4 [2]; HF+TT3, 40 mg/kg/day oral): significantly increased | Adipocyte area ([3]; HF+TT1, 10 mg/kg/day oral): 6872.5 ± 160.8 μm^2 | Adipocyte area ([3]; HF+TT2, 20 mg/kg/day oral): 6530.2 ± 148.2 μm^2 | Adipocyte area ([3]; HF+TT3, 40 mg/kg/day oral): 5972.4 ± 279.5 μm^2 | liver ballooning degeneration ([3]; pathohistological staining): reduce | UCP3 mRNA expression level in liver (UCP3; HF+TT2, 20 mg/kg/day oral): increased | UCP3 mRNA expression level in liver (UCP3; HF+TT3, 40 mg/kg/day oral): increased | protein expression level of membrane GLUT4 (membrane GLUT4 [4]): increase | SREBP-2 mRNA expression level in liver (SREBP-2; HF+TT1, 10 mg/kg/day oral): decreased | SREBP-2 mRNA expression level in liver (SREBP-2; HF+TT2, 20 mg/kg/day oral): decreased | SREBP-2 mRNA expression level in liver (SREBP-2; HF+TT3, 40 mg/kg/day oral): decreased | expression level of p-AMPK/t-AMPK proteins in liver (phospho-AMPK(Thr172); HF+TT1, 10 mg/kg/day oral): significantly increased | expression level of phospho-AMPK/total-AMPK in skeletal muscle (phospho-AMPK(Thr172); HF+TT1, 10 mg/kg/day oral): significantly increased | expression level of p-AMPK/t-AMPK proteins in liver (phospho-AMPK(Thr172); HF+TT2, 20 mg/kg/day oral): significantly increased | expression level of phospho-AMPK/total-AMPK in skeletal muscle (phospho-AMPK(Thr172); HF+TT2, 20 mg/kg/day oral): significantly increased | expression level of p-AMPK/t-AMPK proteins in liver (phospho-AMPK(Thr172); HF+TT3, 40 mg/kg/day oral): significantly increased | expression level of phospho-AMPK/total-AMPK in skeletal muscle (phospho-AMPK(Thr172); HF+TT3, 40 mg/kg/day oral): significantly increased
